Paper PMC12424025, “Deep Structural Characterization of Protein-Bound Lipids via Native MS and Ultraviolet Photodissociation” (Analytical Chemistry, 2025)

Biological target: T1, AqpZ (Escherichia coli, UniProt P60844)
T1 construct: C-terminal GFP-His tag cut by TEV protease; expressed in E. coli BL21(DE3); DDM-purified, C8E4 for native MS; homotetramer about 102 kDa with lipids (17-, m/z 6000)
T1 sequence (P60844 1-231): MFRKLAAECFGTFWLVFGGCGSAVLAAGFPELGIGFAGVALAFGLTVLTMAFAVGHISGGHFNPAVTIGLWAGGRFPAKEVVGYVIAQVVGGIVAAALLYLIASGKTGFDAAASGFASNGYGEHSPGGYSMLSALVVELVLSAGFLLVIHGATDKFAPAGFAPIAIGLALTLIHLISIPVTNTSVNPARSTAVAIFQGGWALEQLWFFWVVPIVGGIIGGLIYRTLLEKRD
Test: native MS with single lipid standard
Type: binding
Conditions: 200 mM ammonium acetate pH 7.0, 2xCMC C8E4

Structure (SMILES)	native MS with single lipid standard
CCCCCCCC/C=C\CCCCCCCC(=O)OC[C@H](COP(=O)(O)OCC(O)COP(=O)(O)OC[C@@H](COC(=O)CCCCCCC/C=C\CCCCCCCC)OC(=O)CCCCCCC/C=C\CCCCCCCC)OC(=O)CCCCCCC/C=C\CCCCCCCC (some centres unmarked) [CDL 18:1(9Z)]	The resulting native mass spectra confirmed that all three lipid classes bind to the membrane protein
CCCCCCCC/C=C\CCCCCCCC(=O)OC[C@H](COP(=O)(O)OCC(O)CO)OC(=O)CCCCCCC/C=C\CCCCCCCC (some centres unmarked) [DOPG]	The resulting native mass spectra confirmed that all three lipid classes bind to the membrane protein
